# In patent US9212187B2, “Nitrogen-containing compounds and pharmaceutical compositions thereof for the treatment of atrial fibrillation” (OTSUKA PHARMACEUTICAL CO., LTD., priority 2009, dated 2015):
# Counter-ions that a name gives are not always drawn.
# Target: human Kv1.5 channels (Homo sapiens (Human), UniProt P22460)
# Experiment: Measurement of human Kv1.5 channel current by whole-cell patch clamp method (human Kv1.5-expressing CHO-K1 cell line), Pharmacological Test 1
# Format: cell-based
# Conditions: First Invention, Table 2, human Kv1.5-expressing CHO-K1 cells, step end current at +40 mV
# Protocol: Pharmacological Test 1 (1) Production of Human Kv1.5-Expressing CHO-K1 Cell Lines
# CHO-K1 cell lines stably expressing human Kv1.5 channels were prepared in the following manner.
# Full-length human Kv1.5 cDNA was cloned from a human heart cDNA library (produced by Stratagene). The obtained human Kv1.5 sequence corresponds to the sequence described in FASEB J. 5, 331-337 (1991).
# The obtained human Kv1.5 cDNA was inserted into a plasmid encoding a CMV promoter and a G418 resistance marker to produce a Kv1.5 expression vector. The human Kv1.5 expression vector was transfected into CHO-K1 cells by the lipofectamine method. After culturing the cells in an F-12 medium (produced by Invitrogen Corp.) containing 10% FBS (produced by Invitrogen Corp.) for 3 or 4 days, the medium was replaced with a FBS-containing F-12 medium that included 1,000 μg/ml of G418 (produced by Invitrogen Corp.), and single colonies were isolated. The amount of Kv1.5 channel expression in the single colonies was quantified at the mRNA level by RT-PCR and then quantified at the protein level by western blotting. Finally, the expressed current was analyzed by patch clamp method. […]
# Depolarizing stimulation pulses were applied and ionic current was recorded by using a patch clamp amplifier (EPC-7 or EPC-7 PLUS, produced by HEKA) and a personal computer (manufactured by IBM Corp.) in which software for data acquisition and analysis of ion channel current (PULSE 8.77, produced by HEKA) was installed. The current was measured in the whole-cell configuration of the patch-clamp technique. […] Subsequently, the series resistance (Rs) between the pipette and the interior of the cell was measured and corrected. […]
# While the membrane potential was holded at −80 mV, depolarizing pulses (−80 mV for 0.05 seconds→□□+40 mV for 0.2 seconds →□□−40 mV for 0.2 seconds→□□−80 mV for 0.05 seconds) were applied at a stimulation frequency of 1 Hz to measure Kv1.5 channel current. […] The current obtained during the pulse application was recorded as a current in the absence of the test compounds. […]
# Sequence of human Kv1.5 channels (P22460 whole entry): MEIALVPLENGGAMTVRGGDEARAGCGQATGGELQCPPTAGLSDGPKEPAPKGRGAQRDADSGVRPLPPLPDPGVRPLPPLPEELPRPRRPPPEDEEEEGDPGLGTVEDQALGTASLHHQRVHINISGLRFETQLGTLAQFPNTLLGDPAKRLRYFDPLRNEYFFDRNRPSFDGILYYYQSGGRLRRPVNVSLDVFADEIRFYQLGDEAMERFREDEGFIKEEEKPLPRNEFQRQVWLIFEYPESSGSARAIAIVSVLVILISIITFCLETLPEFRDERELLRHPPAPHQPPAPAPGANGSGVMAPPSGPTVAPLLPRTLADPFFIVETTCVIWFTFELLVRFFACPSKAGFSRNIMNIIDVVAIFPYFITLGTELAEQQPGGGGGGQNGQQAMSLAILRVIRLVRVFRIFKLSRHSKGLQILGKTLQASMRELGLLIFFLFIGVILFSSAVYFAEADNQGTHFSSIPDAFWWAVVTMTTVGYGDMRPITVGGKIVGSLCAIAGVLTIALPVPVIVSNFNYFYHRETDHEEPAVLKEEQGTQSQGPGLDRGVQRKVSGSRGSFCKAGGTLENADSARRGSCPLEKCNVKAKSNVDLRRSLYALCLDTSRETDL
row,Structure (SMILES),IC50 [nM]
1,"CCN1C(=O)C(C)(C)C(=O)N(C)c2cc(CN(CCn3ccc4oc(C)cc4c3=O)Cc3cccnc3COC)ccc21 [Example 317, 1-Ethyl-7-({N-(2-methoxymethylpyridin-3-ylmethyl)-N-[2-(2-methyl-4-oxo-4H-furo[3,2-c]pyridin-5-yl)ethyl]amino}methyl)-3,3,5-trimethyl-1,5-dihydrobenzo[b][1,4]diazepine-2,4-dione]",630
2,"CCN1C(=O)C(C)(C)C(=O)N(C)c2cc(CN(CCn3cc(C)c4occc4c3=O)Cc3cccnc3COC)ccc21 [Example 318, 1-Ethyl-7-({N-(2-methoxymethylpyridin-3-ylmethyl)-N-[2-(7-methyl-4-oxo-4H-furo[3,2-c]pyridin-5-yl)ethyl]amino}methyl)-3,3,5-trimethyl-1,5-dihydrobenzo[b][1,4]diazepine-2,4-dione]",2900
3,"CCN1C(=O)C(C)(C)C(=O)N(C)c2cc(CN(CCc3cccnc3)C(=O)Cc3cn(C)c4ccccc34)ccc21 [Example 330, N-(1-Ethyl-3,3,5-trimethyl-2,4-dioxo-2,3,4,5-tetrahydro-1H-benzo[b][1,4]diazepin-7-ylmethyl)-2-(1-methyl-1H-indol-3-yl)-N-(2-pyridin-3-ylethyl)acetamide hydrochloride]",860
